Laboratory results: patent US8580823B2, “Piperidine renin inhibitors” (Vitae Pharmaceuticals, Inc., priority 2006, dated 2013)

Columns and labels:
[1] = tested on: double transgenic rats engineered to express human renin and human angiotensinogen; assay: In vivo blood pressure by telemetry in double transgenic rats; design: species or system rat; settings: 6-week-old dTGRs, oral, 4 consecutive days, dosage of 3-10 mg/kg
Description: Double Transgenic Rats: The efficacy of the renin inhibitors can also be evaluated in vivo in double transgenic rats engineered to express human renin and human angiotensinogen (Bohlender J, Fukamizu A, Lippoldt A, Nomura T, Dietz R, Menard J, Murakami K, Luft F C, Ganten D. High human renin hypertension in transgenic rats. Hypertension 1997, 29, 428-434).
Experiments were conducted in 6-week-old double transgenic rats (dTGRs). The model has been described in detail earlier. […] The human angiotensinogen construct made up the entire human angiotensinogen gene (5 exons and 4 introns), with 1.3 kB of 5′-flanking and 2.4 kB of 3′-flanking sequences. The rats were purchased from RCC Ltd (Füllinsdorf, Switzerland). Radio telemetry transmitters were surgically implanted at 4 weeks of age. The telemetry system provided 24-h recordings of systolic, mean, diastolic arterial pressure (SAP, MAP, DAP, respectively) and heart rate (HR). Beginning on day 42, animals were transferred to telemetry cages. A 24 h telemetry reading was obtained. Rats were then dosed orally on the following 4 consecutive days (days 43-46). The rats were monitored continuously and allowed free access to standard 0.3%-sodium rat chow and drinking water.

[2] = target: T1, trypsin-activated recombinant human renin (Homo sapiens, UniProt P00797); assay: In vitro renin inhibition, fluorescence of internally quenched peptide substrate; format: biochemical; settings: fluorogenic peptide substrate, pH 7.0, rt
T1 sequence (P00797 67-406): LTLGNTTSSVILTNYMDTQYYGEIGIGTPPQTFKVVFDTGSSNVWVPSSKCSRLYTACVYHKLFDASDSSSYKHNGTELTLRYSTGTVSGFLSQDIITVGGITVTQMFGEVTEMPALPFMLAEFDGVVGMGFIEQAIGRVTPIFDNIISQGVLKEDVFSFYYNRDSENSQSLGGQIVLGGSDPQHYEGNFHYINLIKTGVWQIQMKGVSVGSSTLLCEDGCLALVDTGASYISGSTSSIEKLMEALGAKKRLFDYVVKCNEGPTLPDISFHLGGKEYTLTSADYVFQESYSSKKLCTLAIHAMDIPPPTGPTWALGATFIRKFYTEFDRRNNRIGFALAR
Description: The sequence of this peptide corresponds to the sequence of human angiotensinogen. The following test protocol was used. All reactions were carried out in a flat bottom white opaque microtiter plate. A 4 μL aliquot of 400 μM renin substrate (DABCYL-γ-[…]) in 192 μl, assay buffer (50 mM BES, 150 mM NaCl, 0.25 mg/mL bovine serum albumin, pH7.0) was added to 4 μl, of test compound in DMSO at various concentrations ranging from 10 μM to 1 nM final concentrations. Next, 100 μL of trypsin-activated recombinant human renin (final enzyme concentration of 0.2-2 nM) in assay buffer was added, and the solution was mixed by pipetting. The increase in fluorescence at 495 nm (excitation at 340 nm) was measured for 60-360 minutes at rt using a Perkin-Elmer Fusion microplate reader. The slope of a linear portion of the plot of fluorescence-increase as a function of time was then determined, and the rate is used for calculating percent inhibition in relation to uninhibited control. […] (Wang G. T. et al. Anal. Biochem. 1993, 210, 351; Nakamura, N. et al. J. Biochem. (Tokyo) 1991, 109, 741; Murakami, K. et al. Anal Biochem. 1981, 110, 232).

[3] = target: T2, plasma renin activity (PRA) (Homo sapiens, UniProt P00797); assay: In vitro plasma renin activity (PRA) in human plasma, angiotensin I radioimmunoassay; format: biochemical; settings: IC50 in pooled human plasma, 37° C., 90 min
T2 construct: pooled mixed-gender human plasma stabilized with EDTA; from tissue; host or cells: pooled mixed-gender human plasma (EDTA)
T2 sequence (P00797 67-406): T1 sequence (P00797 67-406)
Description: Incubations mixtures contained in the final volume of 250 μL 95.5 mM N,N-bis(2-hydroxyethyl)-2-aminoethanesulfonic acid, pH 7.0, 8 mM EDTA, 0.1 mM neomycin sulfate, 1 mg/mL sodium azide, 1 mM phenylmethanesulfonyl fluoride, 2% DMSO and 87.3% of pooled mixed-gender human plasma stabilized with EDTA. For plasma batches with low PRA (less than 1 ng/ml/hr) ˜2 pM of recombinant human renin was added to achieve PRA of 3-4 ng/ml/hr. The cleavage of endogenous angiotensinogen in plasma was carried out at 37° C. for 90 min and the product angiotensin I was measured by competitive radioimmunoassay using DiaSorin PRA kit.

SMILES	effect in lowering blood pressures (mean arterial blood pressure, FIG. 2) [1]	IC50 [2] [µM]	IC50 [3] [µM]
CN[C@H](CNC(=O)N1CCC[C@@H]([C@@H](OCCNC(=O)OC)c2cccc(Cl)c2)C1)C[C@H]1CCCOC1 [Compound 7, methyl 2-((R)-(3-chlorophenyl)((R)-1-((S)-2-(methylamino)-3-((R)-tetrahydro-2H-pyran-3-yl)propylcarbamoyl)piperidin-3-yl)methoxy)ethylcarbamate]	significant effect in lowering blood pressures		
CN[C@H](CNC(=O)N1CCC[C@@H]([C@@H](OCCNC(=O)OC)c2cc(F)cc(Cl)c2)C1)C[C@H]1CCCOC1 [Compound 9, methyl 2-((R)-(3-chloro-5-fluorophenyl)((R)-1-((S)-2-(methylamino)-3-((R)-tetrahydro-2H-pyran-3-yl)propylcarbamoyl)piperidin-3-yl)methoxy)ethylcarbamate]		< 0.001	< 0.01
CN[C@H](CNC(=O)N1CCC[C@@H]([C@@H](OCCNC(=O)OC)c2cc(F)cc(F)c2)C1)C[C@H]1CCCOC1 [Compound 10, methyl 2-((R)-(3,5-difluorophenyl)((R)-1-((S)-2-(methylamino)-3-((R)-tetrahydro-2H-pyran-3-yl)propylcarbamoyl)piperidin-3-yl)methoxy)ethylcarbamate]		< 0.01	< 0.01
CN[C@H](CNC(=O)N1CCC[C@@H]([C@H](OCCNC(=O)OC)c2cc(Cl)ccc2C)C1)C[C@H]1CCCOC1 [Compound 11, methyl 2-((S)-(5-chloro-2-methylphenyl)((R)-1-((S)-2-(methylamino)-3-((R)-tetrahydro-2H-pyran-3-yl)propylcarbamoyl)piperidin-3-yl)methoxy)ethylcarbamate]		< 0.01	< 0.01
CCN[C@H](CNC(=O)N1CCC[C@@H]([C@@H](OCCNC(=O)OC)c2cc(Cl)ccc2C)C1)C[C@H]1CCCOC1 [Compound 12, methyl 2-((R)-(5-chloro-2-methylphenyl)((R)-1-((S)-2-(ethylamino)-3-((R)-tetrahydro-2H-pyran-3-yl)propylcarbamoyl)piperidin-3-yl)methoxy)ethylcarbamate]		< 0.01	
